Data reported in PubChem BioAssay AID504568 (NMMLSC, 2011).
Active and inactive are the calls of the source.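 Rule for the calls: active = binding readouts below 60% of the midpoint between blocked and unblocked controls, with summed weighted score above 1; inactive = the rest.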

Tested on: 2C TCR mouse CD8+ T cells, vesicle binding, flow cytometry
Test: inhibitors of CD8+ T cell LFA-1/ICAM-1 adhesion – powder samples, single concentration, mouse 2C TCR, flow cytometry, confirmation (AID 504568);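 note: lower values mean less vesicle binding and point to an inhibitor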;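 for double-positive events (T cell-vesicle binding): the gate for binding is set so anti-LFA-1 blocked control wells show 10% double positives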
Conditions: stronger effect = lower value; for mean fluorescence percent response: measured here: CD8+ cell vesicle fluorescence mean

| SMILES | double-positive events (T cell-vesicle binding) | mean fluorescence percent response [%] |
| --- | --- | --- |
| O=C(CC1=NCCNC(c2ccccc2)C1)c1ccccc1O (centres undefined) | 28% (inactive) | 170 |
| CC(Sc1nc2ccccc2[nH]1)C(=O)NC1CCCCC1C (centres undefined) | 25.7% (inactive) | 141 |
| O=C(OCCOc1cccc(Cl)c1)c1ccc(F)c(S(=O)(=O)N2CCOCC2)c1 | 25.8% (inactive) | 163 |
| O=C(NCC1CCCCC1)c1ccc(Cl)c(S(=O)(=O)N2CCOCC2)c1 | 17.8% | 136 |
| Cc1cc(=O)oc2c3c(cc(OCC(=O)NCc4ccncc4)c12)OC(C)(C)CC3 | 20.8% | 128 |
| CCOC(=O)c1ccc(S(=O)(=O)N2CCN(C3CCCC3)CC2)cc1 | 23% (inactive) | 155 |
| CCOC(=O)c1ccc(NC(=O)CN2C(=O)NC3(CCCCCCC3)C2=O)cc1 | 27.4% | 149 |
| CCOc1ccc(CCNC(=O)CCS(=O)(=O)c2ccc(C)cc2)cc1OCC | 23.5% | 117 |
| Cc1ccc(O)c(CCc2ccccc2)n1 | 22.9% | 120 |
| COc1ccc(N2CC(C(=O)NC(C)C(=O)NCc3ccccc3OC)CC2=O)cc1 (centres undefined) | 27.3% (inactive) | 177 |
| CCC(C(=O)Nc1ccccc1)c1ccccc1 (centres undefined) | 24.6% | 131 |
| Cc1cc(C)n(C(=O)c2sc3cc(F)ccc3c2Cl)n1 | 24.5% | 90.2 |
| COc1ccc(NC(=O)CSCC(=O)Nc2cccc(S(=O)(=O)N3CCCCCC3)c2)cc1 | 21.7% | 136 |
| CCOc1ccc(-c2nc(N)ncc2-c2ccccc2)c(O)c1 | 20.9% | 126 |
| COc1ccc(Nc2ccccc2N)cc1 | 32.7% (inactive) | 138 |
| CCCCOc1ccc(C(=O)NCC(=O)N2CCN(C(=O)c3ccco3)CC2)cc1 | 25.2% | 133 |
| Cc1ncc([N+](=O)[O-])n1Cc1cccc(F)c1 | 28.5% (inactive) | 152 |
| O=C(NCc1cccnc1)C(=O)NCC(c1ccco1)N1CCN(c2ccccc2)CC1 (centres undefined) | 26.8% (inactive) | 149 |
| NC(=O)C1CCN(c2nc(-c3cc4ccccc4o3)cs2)CC1 | 26.2% (inactive) | 140 |
| O=C(c1ccc(N2C(=O)C3CC=C(Cl)CC3C2=O)cc1)N1CCCCC1 (centres undefined) | 22.8% (inactive) | 130 |
| CN(C)S(=O)(=O)c1ccc(C(=O)NCCc2ccco2)cc1 | 22.8% | 122 |
| Cc1ccc(Cn2c([N+](=O)[O-])cnc2C)cc1 | 23.1% | 153 |
| Cc1ccccc1C(=O)NCC(=O)N1CCN(C/C=C/c2ccccc2)CC1 | 21.8% | 150 |

| SMILES | double-positive events (T cell-vesicle binding) | mean fluorescence percent response [%] |
| --- | --- | --- |
| COCCCN1CCc2[nH]c(=S)[nH]c(=O)c2C1 | 28% (inactive) | 169 |
| Cc1ccc(N2CC(C(=O)NC3=NCCS3)CC2=O)cc1 (centres undefined) | 21.9% (inactive) | 161 |
| COc1cccc(NC(=O)Nc2ccc3nc(C)c(C)nc3c2)c1 | 18.7% | 113 |
| Cc1ccc(S(=O)(=O)N2CCN(C(=O)CNC(=O)c3ccc(Cl)cc3)CC2)cc1 | 29.6% (inactive) | 165 |
| O=C(NCCN1CCN(c2ccccc2)CC1)c1cccc(Br)c1 | 24.2% (inactive) | 152 |
| COc1ccc(C(O)c2coc3ccc(O)c(CN(C)C)c23)cc1 (centres undefined) | 21.7% (inactive) | 162 |
| CCC1(C)NC(=O)N(CC(=O)N2N=C(c3ccccc3)CC2c2ccc(OC)cc2)C1=O (centres undefined) | 24% (inactive) | 144 |
| O=C(NNS(=O)(=O)c1ccc2ccccc2c1)c1cccs1 | 23.5% (inactive) | 149 |
| O=C(CCC(=O)N1CCOCC1)NCc1cccc(C(F)(F)F)c1 | 24.3% (inactive) | 133 |
| Cc1cccc(NC(=O)C2CCN(S(=O)(=O)c3c(C)[nH]c(=O)[nH]c3=O)CC2)c1 | 27.4% (inactive) | 161 |
| CN1CCN(S(=O)(=O)c2ccc(C(=O)Nc3ccccc3)cc2)CC1 | 26.1% (inactive) | 138 |
| CCN(CC)C(=O)N1CCN(S(=O)(=O)c2ccc(C)cc2)CC1 | 26% (inactive) | 129 |
| CCN(CC)CCNC(=O)CCCNC(=O)Cn1cnc2sc(C)c(C)c2c1=O | 30.9% (inactive) | 196 |
| Cn1c(CNC(=O)CNC(=O)c2ccc(F)cc2)cc(=O)n(C)c1=O | 29.7% (inactive) | 165 |
| COC(=O)c1ccccc1NC(=O)C1CCN(C(=O)c2cc(OC)cc(OC)c2)CC1 | 29.9% (inactive) | 172 |
| CCN(CC)S(=O)(=O)c1ccc(Cl)c(NC(=O)COC(=O)C2CCCCC2)c1 | 14.5% | 126 |
| CC(C)(C)NC(=O)COc1ccc(CNCc2cccnc2)cc1 | 25.7% (inactive) | 148 |
| CN(CC(=O)Nc1cc(S(=O)(=O)N2CCCC2)ccc1Cl)Cc1ccc2c(c1)OCO2 | 20.9% | 123 |
| COc1ccc(S(=O)(=O)N2CCCCC2)cc1NC(=O)c1cnc(C)cn1 | 26.7% (inactive) | 173 |
| COc1ccc(NC(=O)CC2C(=O)N(Cc3ccccc3)C(=S)N2CCN2CCOCC2)cc1 (centres undefined) | 28.8% (inactive) | 149 |
| COc1ccc(C2=Nc3cc(C)ccc3OC2)cc1 | 26.7% (inactive) | 140 |
| Cc1sc2ncnc(NCC(C)(C)N3CCOCC3)c2c1C | 20.2% | 126 |
| O=C(CS(=O)(=O)Cc1ccccc1)N1CCc2ccccc21 | 25.6% (inactive) | 159 |

| SMILES | double-positive events (T cell-vesicle binding) | mean fluorescence percent response [%] |
| --- | --- | --- |
| Cc1ccc(OCCOC(=O)c2cc(S(=O)(=O)N3CCCCC3)ccc2N2CCOCC2)cc1 | 20.9% | 134 |
| CCCNC(=O)c1nc2ncc(Br)cn2n1 | 25.8% (inactive) | 154 |
| O=C(COC(=O)C12CC3CC(CC(Br)(C3)C1)C2)Nc1cccc(S(=O)(=O)N2CCOCC2)c1 | 13.9% | 91.1 |
| COc1ccc([N+](=O)[O-])cc1NC(=O)c1ccc(N(Cc2ccccc2C)S(C)(=O)=O)cc1 | 23% | 105 |
| CCOC(=O)C1CCCN(S(=O)(=O)c2ccc(F)c(C(=O)Nc3ccc(F)c(F)c3)c2)C1 (centres undefined) | 22.4% | 162 |
| COc1ccccc1CNC(=O)COc1ccc(C)cc1 | 24.8% (inactive) | 173 |
| CCOCC(=O)Nc1ccc(S(=O)(=O)N2CCC(c3nc4ccccc4[nH]3)CC2)cc1 | 16.4% | 97.1 |
| COc1ccc(S(=O)(=O)N2CCCC2C(=O)Nc2ccc(C(C)=O)cc2)cc1 (centres undefined) | 26.1% (inactive) | 142 |
| c1ccc(COc2ccc(OCCN3CCCCC3)cc2)cc1 | 20.7% | 133 |
| CCOC(=O)N1CCN(C(=O)c2ccc(CS(=O)Cc3ccc(C)cc3)o2)CC1 (centres undefined) | 26.5% (inactive) | 146 |
| CC1CCCCC1NC(=O)COC(=O)c1ccc2ncsc2c1 (centres undefined) | 19.9% | 111 |
| O=C(NCCC1=CCCCC1)C(=O)NCC(c1ccco1)N1CCN(c2ccccc2F)CC1 (centres undefined) | 26.1% (inactive) | 116 |
| CN(C)S(=O)(=O)c1cccc(-n2sc3ccccc3c2=O)c1 | 17.7% | 109 |
| Cc1ccc(NC(=O)COC(=O)CCc2c[nH]c3ccccc23)c(C)c1 | 25.1% | 147 |
| CCCCn1nc(C(=O)N2CCN(S(=O)(=O)c3ccccc3)CC2)c2ccccc2c1=O | 28.1% (inactive) | 145 |
| Cc1ccc(C(=O)NCCCN2CCOCC2)c(C)c1 | 24.4% | 136 |
| Cc1ccccc1C(=O)N1CCC(C(=O)Nc2ccc(C)c(S(=O)(=O)N3CCCCC3)c2)CC1 | 22.7% | 130 |
| CC(=O)c1ccc(-c2csc(N3CCC(C(N)=O)CC3)n2)cc1 | 26.5% (inactive) | 153 |
| CCOC(=O)c1c(N2C(=O)CC(Sc3ccccc3C(=O)O)C2=O)sc2c1CCCC2 (centres undefined) | 9.25% | 59.9 |
| COc1ccc(CNC(=O)c2cccnc2SC)cc1OC | 26.7% (inactive) | 163 |
| CCCc1nnc(NC(=O)c2ccc(S(=O)(=O)N(C)c3ccccc3OC)cc2)s1 | 26.1% (inactive) | 131 |
